The experiment concerns early carious lesions (enamel lesions of anterior maxillary teeth). Kind of experiment: QLF analysis of enamel lesion remineralization, 6-month clinical study of sugar-free chewing gums. In kind it is in vivo, human. Particulars: for stopping and reversing the oral white lesions, compared with the two control groups: 6-month study; for ΔF compared with gumbase group and control group without gum: after 3 months, P<0.01; for ΔF compared with the two control groups (gumbase and no gum) / ΔQ compared with the two control groups (gumbase and no gum): after 6 months, p<0.01. The text has this:
The QLF™ (Quantitative Light-induced Fluorescence) method is a dental diagnostic tool for the quantitative evaluation, in vivo and in vitro, of dental carious lesions. The apparatus is equipped with a camera and is connected to a computer (using a program specific to QLF™). The probe, which emits a blue light (xenon lamp+filter), is passed over the tooth tested, which retransmits this light in the form of fluorescence. […] This photograph or instantaneous image is then processed using the software of the QLF™ which then recreates a reconstituted image representing the carious lesion. With this method, the real-time fluorescent images are entered into the computer and stored in an image database. Quantitative analysis of the images allows the user to quantify parameters such as loss of minerals, lesion depth, lesion size, size of the spots present on the teeth and seriousness of the various lesions with great precision and repeatability. The QLF™ method is based on the autofluorescence of the teeth. When the teeth are illuminated by the high-intensity blue light, they will begin to emit light in the green part of the spectrum. The intensity of the fluorescence of the dental material is directly related to the mineral content of the enamel. Since the QLF™ method uses fluorescence to reveal the dental carie, the contrast between the demineralized enamel and the healthy enamel is increased. Thus, the absence of specular reflection in the images obtained by the QLF™ method facilitates the calculation of the size and seriousness of the lesion by the digital image processing system. Evaluation of the efficacy against caries of a sugar-free chewing gum containing maltitol sold by the applicant under the brand SweetPearl™ using a study model consisting of various appropriate control groups (gum and maltitol, gum and xylitol, gum without polyol and no chewing gum) and the QLF™ method. Children from 8 to 13 years old, in good health, were included in the study. Their parents were informed about the study by the teachers of the school and signed an informed consent form. […] In total, 420 pupils completed a six-month study. This study is a double-blind (subjects, caregivers and examiners), multicenter, parallel, random clinical study carried out in schools. The evaluation of the dental plaque uses the Silness method and the Loe index. The digital images were taken using a digital photographic apparatus, and those of the QLF™ method were taken using the QLF™ apparatus separately. Before this examination, all the dental plaque was removed from the surface of the teeth. All the procedures were supervised by qualified personnel (dentists/hygienists). The QLF™ method was used to monitor the evolution of demineralization and remineralization of the enamel lesions. During the visit, fluorescent images were taken of the six (or fewer) anterior maxillary teeth. An image of each tooth was taken at each visit in order to ensure that all the anterior teeth were photographed. All the images taken using the QLF™ apparatus were analyzed by an experienced individual in order to determine the “mineral condition” of each tooth, using proprietory software (QLF 2.00, Inspektor, The Netherlands). The QLF™ method makes it possible to control three distinct parameters: ΔF, the area of the lesion and ΔQ. ΔF is the percentage loss of fluorescence between the comparison of a healthy enamel and an identified lesion. The detection threshold for ΔF is 5%, which means that a loss of fluorescence below this threshold is considered to be background noise and therefore not significant. The area of the lesion is calculated by means of the pixels taken into account by the analysis software as representing the demineralized enamel (i.e. those with a loss of fluorescence of at least 5%). ΔQ is the product of ΔF multiplied by the area of the lesion and represents the volume of this lesion. […]

The mark [1] stands for this setting: 3 Months, 2 chewing gums (up to 60% polyol) 5 times per day.
Where [2] appears, read: 6 Months, 2 chewing gums (up to 60% polyol) 5 times per day.
[3] abbreviates: Baseline, children 8-13 years, mean ± spread.

This is an account of results in patent US20160250127A1, “USE OF A POLYOL IN THE REMINERALISATION OF ENAMEL” (ROQUETTE FRERES, priority 2013, published 2016).

The structures appear in SMILES notation.

As to `OC[C@@H](O)[C@H](O)[C@@H](O)CO` [Xylitol, xylitol], the “stopping and reversing the oral white lesions, compared with the two control groups” value is listed as “significantly more effective”; the “ΔF compared with gumbase group and control group without gum” value is “significantly different”; the “ΔF compared with the two control groups (gumbase and no gum)” value is on record as “considerable differences”; the “ΔQ compared with the two control groups (gumbase and no gum)” value was “considerable differences”. In addition, under setting [1], the “QLF parameter Area (area of the lesion)” value amounted to 2.43 ± 1.72, the “QLF parameter ΔF (percentage loss of fluorescence)” value is recorded as −8.56 ± 2.02 and the “QLF parameter ΔQ (ΔF multiplied by area of the lesion)” value (from here on “QLF parameter ΔQ”) is on record as −22.10 ± 18.85. Under setting [2], the “QLF parameter Area (area of the lesion)” value is reported as 2.31 ± 1.85, the “QLF parameter ΔF (percentage loss of fluorescence)” value is listed as −8.37 ± 1.78 and the “QLF parameter ΔQ” value is reported as −18.19 ± 21.29. For the same compound, for the setting “Baseline, children 8-13 years”, the “QLF parameter ΔF (percentage loss of fluorescence)” value is reported as −9.36 ± 1.92 and the “QLF parameter ΔQ” value is −25.95 ± 24.66. In addition, under setting [3], the “QLF parameter Area (area of the lesion)” value is listed as 2.58 ± 1.91.
Turning to `OC[C@@H](O)[C@@H](O[C@H]1O[C@H](CO)[C@@H](O)[C@H](O)[C@H]1O)[C@H](O)[C@@H](O)CO` [Maltitol, maltitol], the “stopping and reversing the oral white lesions, compared with the two control groups” value is “significantly more effective”; the “ΔF compared with gumbase group and control group without gum” value is “significantly different”; the “ΔF compared with the two control groups (gumbase and no gum)” value is listed as “considerable differences”; the “ΔQ compared with the two control groups (gumbase and no gum)” value was “considerable differences”. In addition, under setting [1], the “QLF parameter Area (area of the lesion)” value was determined as 2.33 ± 1.90, the “QLF parameter ΔF (percentage loss of fluorescence)” value was −8.78 ± 1.78 and the “QLF parameter ΔQ” value is reported as −20.62 ± 18.97. For the same compound, under setting [2], the “QLF parameter Area (area of the lesion)” value was determined as 2.18 ± 1.63, the “QLF parameter ΔF (percentage loss of fluorescence)” value was −8.42 ± 1.87 and the “QLF parameter ΔQ” value is on record as −16.69 ± 15.15. Further, under “Baseline, children 8-13 years”, the “QLF parameter ΔF (percentage loss of fluorescence)” value is reported as −9.38 ± 1.79 and the “QLF parameter ΔQ” value is given as −24.87 ± 23.06. Under setting [3], the “QLF parameter Area (area of the lesion)” value is 2.47 ± 1.95.
